From ChEMBL document CHEMBL1149904, “Isolation and structure determination of malevamide E, a dolastatin 14 analogue, from the marine cyanobacterium Symploca laete-viridis” (J Nat Prod, 2008)

System: HEK293
Test: Inhibition of Ca2+ release activated Ca2+ channels in thapsigarin-treated HEK cells
Assay type: cell-based
Details: Homo sapiens

With `CNC(=O)C[C@H]1C(=O)N(C)[C@@H](C)C(=O)OC(C)CCC/C=C/CCC(OC)C/C=C/C=C(\C)C(=O)N[C@H](C(C)C)C(=O)N(C)[C@@H](Cc2ccccc2)C(=O)N(C)[C@@H](C(C)C)C(=O)N(C)[C@@H](C(C)C)C(=O)N2CCC[C@H]2C(=O)N1C` (stereo partly specified) the Activity was “Dose-dependent effect”.
